Measurements reported in patent US4346076A, “Bis-tetrazoylmethyl substituted cephalosporin antibiotics” (Eli Lilly and Company, priority 1980, dated 1982).
≈ marks a conversion by molar mass, not a printed value. Read-outs that look alike come from different tables or passages of the source.

What was measured:
Assay in all cases: in vitro antibacterial activity, agar dilution
Format in all cases: cell-based
[1] = system: Bordetella bronchoseptica; settings: strain 16, read-out: Minimum Inhibitory Concentration
From the text: (§1) The bis-tetrazol-thiomethyl substituted cephalosporins of this invention are broad spectrum antibiotics which inhibit the growth of both gram positive and gram negative microorganisms which are pathogenic to man and animals. […] The following Table 2 lists the minimum inhibitory concentrations of representative compounds of the invention.
(§2) The data in TABLE 2 were obtained in the agar dilution test method using Mueller-Hinton agar containing two percent Supplement C (Difco). Serial two-fold dilutions were run with the highest concentration on test at 128 mcg/ml.

Citrobacter freundii = settings: strain CF17, read-out: Minimum Inhibitory Concentration
From the text: as §1, §2

Enterobacter aerogenes = settings: for MIC: Klebsiella aerogenes, read-out: Minimum Inhibitory Concentration
From the text: as §1, §2

Enterobacter cloacae = system: Enterobacter cloacae
From the text: as §1, §2

Escherichia coli = system: Escherichia coli
From the text: as §1, §2

Haemophilus influenzae = settings: for MIC: Haemophilus influenzae, read-out: Minimum Inhibitory Concentration
From the text: as §1, §2

Klebsiella sp. = system: Klebsiella sp.
From the text: as §1, §2

Proteus inconstans = settings: Providencia alcalifaciens; strain PR33; read-out: Minimum Inhibitory Concentration
From the text: as §1, §2

Proteus morganii = settings: Morganella morganii, read-out: Minimum Inhibitory Concentration
From the text: as §1, §2

Proteus rettgeri = settings: Providencia rettgeri, read-out: Minimum Inhibitory Concentration
From the text: as §1, §2

Pseudomonas aeruginosa = system: Pseudomonas aeruginosa
From the text: as §1, §2

Salmonella sp. = system: Salmonella sp.
From the text: as §1, §2

Serratia marcescens = system: Serratia marcescens
From the text: as §1, §2

Shigella sonnei = settings: strain N9, read-out: Minimum Inhibitory Concentration
From the text: as §1, §2

Staphylococcus aureus = system: Staphylococcus aureus
From the text: as §1, §2

[2] = system: Staphylococcus epidermidis
From the text: as §1, §2

Streptococcus Group A = settings: strain C203; read-out: Minimum Inhibitory Concentration
From the text: as §1, §2

Streptococcus Group D = settings: read-out: Minimum Inhibitory Concentration
From the text: as §1, §2

Streptococcus pneumoniae = settings: strain PARK, read-out: Minimum Inhibitory Concentration
From the text: as §1, §2

[3] = strain 265A, read-out: Minimum Inhibitory Concentration
[4] = strain EB5, read-out: Minimum Inhibitory Concentration
[5] = strain EC14, read-out: Minimum Inhibitory Concentration
[6] = strain N10, read-out: Minimum Inhibitory Concentration
[7] = strain TEM, read-out: Minimum Inhibitory Concentration
[8] = strain KAE, read-out: Minimum Inhibitory Concentration
[9] = strain X26, read-out: Minimum Inhibitory Concentration
[10] = strain Ps18, read-out: Minimum Inhibitory Concentration
[11] = strain X239, read-out: Minimum Inhibitory Concentration
[12] = strain X528, read-out: Minimum Inhibitory Concentration
[13] = strain 1335, read-out: Minimum Inhibitory Concentration
[14] = strain X514, read-out: Minimum Inhibitory Concentration
[15] = strain SE3, read-out: Minimum Inhibitory Concentration
[16] = strain X93, read-out: Minimum Inhibitory Concentration
[17] = read-out: Minimum Inhibitory Concentration
[18] = strain V41, read-out: Minimum Inhibitory Concentration
[19] = strain X1.1, read-out: Minimum Inhibitory Concentration
[20] = strain X400, read-out: Minimum Inhibitory Concentration
[21] = strain EPI1, read-out: Minimum Inhibitory Concentration
[22] = strain EPI2, read-out: Minimum Inhibitory Concentration

Compound | MIC [1] | MIC (Citrobacter freundii) | MIC (Enterobacter aerogenes; strain EB17) | MIC (Enterobacter cloacae; [3]) | MIC (Enterobacter cloacae; [4]) | MIC (Escherichia coli; [5]) | MIC (Escherichia coli; [6]) | MIC (Klebsiella sp.; [8]) | MIC (Klebsiella sp.; [9]) | MIC (Proteus inconstans) | MIC (Proteus rettgeri; strain C24) | MIC (Proteus rettgeri; strain PR7) | MIC (Pseudomonas aeruginosa; [10]) | MIC (Pseudomonas aeruginosa; [11]) | MIC (Pseudomonas aeruginosa; [12]) | MIC (Salmonella sp.; [13]) | MIC (Salmonella sp.; [14]) | MIC (Serratia marcescens; [15]) | MIC (Shigella sonnei) | MIC (Staphylococcus aureus; [17]) | further results
CCN1CCN(C(=O)N[C@@H](C(=O)N[C@@H]2C(=O)N3C(C(=O)O)=C(CSc4nnnn4Cc4nnn[nH]4)CS[C@H]23)c2ccc(O)cc2)C(=O)C1=O [D, 7-[α-(4-Ethylpiperazin-2,3-dione-1-ylcarbonylamino)-α-(4-hydroxyphenyl)acetamido]-3-[1-(1H-tetrazole-5-ylmethyl)-1H-tetrazole-5-ylthiomethyl]-3-cephem-4-carboxylic acid] | 32 µg/mL (≈ 44.8 µM) | 32 µg/mL (≈ 44.8 µM) | 0.5 µg/mL (≈ 0.701 µM) | 128 µg/mL (≈ 179 µM) | 2 µg/mL (≈ 2.8 µM) | 0.125 µg/mL (≈ 0.175 µM) | 2 µg/mL (≈ 2.8 µM) | > 128 µg/mL | 1 µg/mL (≈ 1.4 µM) | 2 µg/mL (≈ 2.8 µM) | 8 µg/mL (≈ 11.2 µM) | 4 µg/mL (≈ 5.6 µM) | 8 µg/mL (≈ 11.2 µM) | 4 µg/mL (≈ 5.6 µM) | 8 µg/mL (≈ 11.2 µM) | 4 µg/mL (≈ 5.6 µM) | 2 µg/mL (≈ 2.8 µM) | 4 µg/mL (≈ 5.6 µM) | 0.25 µg/mL (≈ 0.35 µM) | 32 µg/mL (≈ 44.8 µM) | MIC (Enterobacter aerogenes; strain C32): 2 µg/mL (≈ 2.8 µM); MIC (Enterobacter aerogenes; strain X68): 0.25 µg/mL (≈ 0.35 µM); MIC (Escherichia coli; [7]): 16 µg/mL (≈ 22.4 µM); MIC (Haemophilus influenzae; strain 251, resistant strain): 0.015 µg/mL (≈ 0.021 µM); MIC (Haemophilus influenzae; strain Brun, sensitive strain): 0.015 µg/mL (≈ 0.021 µM); MIC (Proteus morganii; strain PR15): 1 µg/mL (≈ 1.4 µM); MIC (Serratia marcescens; [16]): 1 µg/mL (≈ 1.4 µM); MIC (Staphylococcus aureus; [18]): 16 µg/mL (≈ 22.4 µM); MIC (Staphylococcus aureus; [19]): 4 µg/mL (≈ 5.6 µM); MIC (Staphylococcus aureus; [20]): > 128 µg/mL; MIC [2, 21]: 8 µg/mL (≈ 11.2 µM); MIC [2, 22]: 32 µg/mL (≈ 44.8 µM); MIC (Streptococcus Group A): 0.5 µg/mL (≈ 0.701 µM); MIC (Streptococcus Group D; strain 9960): 64 µg/mL (≈ 89.7 µM); MIC (Streptococcus Group D; strain X66): 128 µg/mL (≈ 179 µM); MIC (Streptococcus pneumoniae): 0.25 µg/mL (≈ 0.35 µM)
CO/N=C(\C(=O)N[C@@H]1C(=O)N2C(C(=O)O)=C(CSc3nnnn3Cc3nnnn3C)CS[C@H]12)c1csc(N)n1 [F] | 128 µg/mL (≈ 216 µM) | 16 µg/mL (≈ 27 µM) | 0.25 µg/mL (≈ 0.421 µM) | 32 µg/mL (≈ 53.9 µM) | 1 µg/mL (≈ 1.68 µM) | 0.06 µg/mL (≈ 0.101 µM) | 0.25 µg/mL (≈ 0.421 µM) | 4 µg/mL (≈ 6.74 µM) | 0.06 µg/mL (≈ 0.101 µM) | 0.5 µg/mL (≈ 0.842 µM) | 0.25 µg/mL (≈ 0.421 µM) | 0.03 µg/mL (≈ 0.0505 µM) | 32 µg/mL (≈ 53.9 µM) | 32 µg/mL (≈ 53.9 µM) | 32 µg/mL (≈ 53.9 µM) | 0.5 µg/mL (≈ 0.842 µM) | 0.25 µg/mL (≈ 0.421 µM) | 0.5 µg/mL (≈ 0.842 µM) | 0.125 µg/mL (≈ 0.211 µM) | 8 µg/mL (≈ 13.5 µM) | MIC (Enterobacter aerogenes): 0.125 µg/mL (≈ 0.211 µM); Minimum Inhibitory Concentration (Enterobacter aerogenes; strain C32): .125 µg/mL; MIC (Escherichia coli; [17]): 0.125 µg/mL (≈ 0.211 µM); MIC (Haemophilus influenzae): 0.125 µg/mL (≈ 0.211 µM); Minimum Inhibitory Concentration (Haemophilus influenzae; strain 251, resistant strain): .125 µg/mL; MIC (Proteus morganii): 0.125 µg/mL (≈ 0.211 µM); MIC (Serratia marcescens; [17]): 0.125 µg/mL (≈ 0.211 µM); MIC (Staphylococcus aureus; [18]): 4 µg/mL (≈ 6.74 µM); MIC (Staphylococcus aureus; [19]): 2 µg/mL (≈ 3.37 µM); MIC (Staphylococcus aureus; [20]): > 128 µg/mL; MIC [2, 21]: 8 µg/mL (≈ 13.5 µM); MIC [2, 22]: 32 µg/mL (≈ 53.9 µM); MIC (Streptococcus Group A): 0.03 µg/mL (≈ 0.0505 µM); MIC (Streptococcus Group D; strain 9960): 16 µg/mL (≈ 27 µM); MIC (Streptococcus Group D; strain X66): > 128 µg/mL; MIC (Streptococcus pneumoniae): 0.015 µg/mL (≈ 0.0253 µM)
CO/N=C(\C(=O)N[C@@H]1C(=O)N2C(C(=O)O)=C(CSc3nnn(Cc4nnn[nH]4)n3)CS[C@H]12)c1csc(N)n1 [G, syn 7β-[α-methoximino-α-(2-amino-1,3-thiazol-4-yl)-acetamido]-3-[2-(1H-tetrazol-5-ylmethyl)-2H-tetrazol-5-ylthiomethyl]-3-cephem-4-carboxylic acid] | 64 µg/mL (≈ 110 µM) | 64 µg/mL (≈ 110 µM) | 0.25 µg/mL (≈ 0.431 µM) | 64 µg/mL (≈ 110 µM) | 2 µg/mL (≈ 3.45 µM) | 0.125 µg/mL (≈ 0.216 µM) | 0.25 µg/mL (≈ 0.431 µM) | 8 µg/mL (≈ 13.8 µM) | 0.125 µg/mL (≈ 0.216 µM) | 1 µg/mL (≈ 1.73 µM) | 2 µg/mL (≈ 3.45 µM) | 0.03 µg/mL (≈ 0.0518 µM) | 32 µg/mL (≈ 55.2 µM) | 16 µg/mL (≈ 27.6 µM) | 16 µg/mL (≈ 27.6 µM) | 0.5 µg/mL (≈ 0.863 µM) | 0.125 µg/mL (≈ 0.216 µM) | 2 µg/mL (≈ 3.45 µM) | 2 µg/mL (≈ 3.45 µM) | 32 µg/mL (≈ 55.2 µM) | MIC (Enterobacter aerogenes; strain C32): 0.25 µg/mL (≈ 0.431 µM); MIC (Enterobacter aerogenes; strain X68): 0.06 µg/mL (≈ 0.104 µM); MIC (Escherichia coli; [7]): 0.125 µg/mL (≈ 0.216 µM); MIC (Haemophilus influenzae; strain 251, resistant strain): 0.06 µg/mL (≈ 0.104 µM); MIC (Haemophilus influenzae; strain Brun, sensitive strain): 0.06 µg/mL (≈ 0.104 µM); MIC (Proteus morganii; strain PR15): 0.5 µg/mL (≈ 0.863 µM); MIC (Serratia marcescens; [16]): 0.25 µg/mL (≈ 0.431 µM); MIC (Staphylococcus aureus; [18]): 8 µg/mL (≈ 13.8 µM); MIC (Staphylococcus aureus; [19]): 4 µg/mL (≈ 6.9 µM); MIC (Staphylococcus aureus; [20]): > 128 µg/mL; MIC [2, 21]: 32 µg/mL (≈ 55.2 µM); MIC [2, 22]: 64 µg/mL (≈ 110 µM); MIC (Streptococcus Group A): 0.03 µg/mL (≈ 0.0518 µM); MIC (Streptococcus Group D; strain 9960): > 128 µg/mL; MIC (Streptococcus Group D; strain X66): > 128 µg/mL; MIC (Streptococcus pneumoniae): 0.03 µg/mL (≈ 0.0518 µM)
